Assay results: patent US20230017266A1, “Cyclooxygenase-2 Inhibition for the Treatment of SAA-high Asthma” (THE USA, AS REPRESENTED BY THE SECRETARY, DEPT. OF HEALTH …, priority 2019, published 2023)

How the values were obtained:
PTGS2 mRNA = PTGS2 mRNA levels in CD14+ monocytes cultured with HDL+SAA1 (qRT-PCR); type: cell-based, human; details: 24 h
Procedure: Quantitative RT-PCR (qRT-PCR). Total RNA was purified using the Direct-Zol™ RNA MiniPrep kit and total RNA (100 ng) was reverse transcribed into cDNA using the High-Capacity cDNA Reverse Transcription Kit (Applied Biosystems, Foster City, Calif.). Polymerase chain reactions (PCR) were performed on duplicate cDNA samples using TaqMan Universal PCR Master Mix, FAM-MGB dye-labeled Taqman® PTGS2 probe (Assay ID Hs00153133_m1, catalog #4331182), and a 7900 Real Time PCR System running Sequence Detector version 2.4 software, all from Applied Biosystems (Foster City, Calif.). Gene expression was quantified relative to expression of 18S rRNA using the control sample as a calibrator to calculate the difference in Ct values (ΔΔCt) and presented as relative mRNA expression. For quantification of miR-155-5p expression, miRNA present in total RNA (10 ng) was converted to cDNA using the microRNA cDNA Reverse Transcription kit (Applied Biosystems, Foster City, Calif.). Polymerase chain reaction (PCR) was performed on duplicate cDNA samples using TaqMan Universal PCR Master Mix, Taqman® MicroRNA Assay for has-miR-155-5p (Assay ID #002623, catalog #4427975), and a 7900HT Fast Real-Time PCR System running Sequence Detector version 2.4 software (ThermoFisher Scientific, Waltham, Mass.). miR-155-5p expression was quantified relative to expression of U6 snRNA using the control sample as calibrator to calculate the difference in Ct values (ΔΔCt) and presented as relative mRNA expression.
miR-155 Inhibition. CD14+ monocytes were suspended in 4D human monocyte Nucleofector™ solution (Amaxa™ P3 Primary Cell 4D-Nucleofector™ X kit, catalog #V4XP-3024, Lonza, Walkersville, Md.) to a final concentration of 2×10^6 cells/100 […] at room temperature. […] CD14^+ monocytes were plated at a density of 4×10^4 cells/well in a 96-well plate to collect culture media for cytokine quantification and the remaining cells were plated in a 24-well plate to isolate total RNA for qRT-PCR. After 72 h, cytokine secretion was quantified by ELISA and mRNA levels were quantified by qRT-PCR.

THP-1 monocytes = assay: Cytokine secretion by THP-1 monocytes stimulated with endogenous SAA-high HDL; type: cell-based, human; details: pre-treated 1 h; for ability of endogenous SAA-high HDL to induce cytokine secretion: SAA-high HDL 24 h
Procedure: HDL Isolation and Analysis. HDL was isolated from plasma by size-exclusion chromatography using two Superose 6 columns in series on an Akta FPLC system (GE Healthcare Life Sciences, Pittsburgh, Pa.), as previously described. FPLC fractions were assayed for cholesterol content (Cholesterol E, catalog #996021611, FUJIFILM Wako Diagnostics USA, Mountain View, Calif.) to identify HDL fractions, which were pooled and concentrated using a 10-kDa exclusion filter (Amicon Ultra Centrifuge Filters, Millipore, Darmstadt, Germany). The content of SAA in purified HDL was quantified using the human SAA ELISA kit, while APOA1 was quantified using the human APOA1 ELISA development kit (Mabtech, Nacka Strand, Sweden). THP-1 monocytes (American Type Culture Collection, Manassas, Va.) were treated with HDL from SAA-high asthmatics (n=16), as well as HDL from asthmatics with the lowest SAA levels (n=16), and the quantity of […], IL-6, TNF-α, and IL-10 secreted into culture medium over 24 h was assayed using Human DuoSet ELISA kits (R&D Systems, Minneapolis, Minn.) and data were acquired using a SpectraMax M2 spectrophotometer (Molecular Devices, San Jose, Calif.).
Stimulation of THP-1 monocytes with endogenous HDL from SAA-high asthmatics and suppression of cytokine secretion were further studied. HDL (4 μg of protein/ml) isolated from plasma from a SAA-high asthmatic (SAA-high HDL) and from a healthy non-asthmatic subject (Normal HDL) were used to stimulate THP-1 monocytes for 24 h. THP-1 monocytes were pre-treated with the FPR2 antagonist, WRW4 or water (40 μM) as the vehicle control, or A438079 or DMSO (10 μM) as the vehicle control, for 1 h prior to stimulation with normal or SAA-high HDL for 24 h. One-way ANOVA with Sidak's multiple comparisons test. ****P<0.0001.
HDL ([…] of protein/ml) isolated from plasma from a SAA-high asthmatic (SAA-high HDL) and from a healthy non-asthmatic subject (Normal HDL) were used to stimulate THP-1 monocytes for 24 h. THP-1 monocytes were pre-treated with BAY-11-7082 ([…] (1 μM) or DMSO (10 μM) as the vehicle control for 1 h, as indicated, prior to stimulation with normal or SAA-high HDL for 24 h. One-way ANOVA with Sidak's multiple comparisons test. ****P<0.0001.
HDL (4 μg of protein/ml) isolated from plasma from a SAA-high asthmatic (SAA-high HDL) and from a healthy non-asthmatic subject (Normal HDL) were used to stimulate THP-1 monocytes for 24 h. A. THP-1 monocytes were pre-treated with celecoxib or DMSO (0.01 μM) as the vehicle control for 1 h, as indicated, prior to stimulation with normal or SAA-high HDL for 24 h. One-way ANOVA with Sidak's multiple comparisons test. ****P<0.0001.

[1] = A438079 10 μM, SAA-high HDL 4 μg of protein/ml 24 h

Clc1cccc(-c2nnnn2Cc2cccnc2)c1Cl [A438079]
HDL+SAA1-mediated increases in PTGS2 mRNA (PTGS2 mRNA; A438079 10 μM): attenuated
IL-1β secretion induced by endogenous SAA-high HDL (THP-1 monocytes; [1]): inhibited
IL-6 secretion induced by endogenous SAA-high HDL (THP-1 monocytes; [1]): inhibited
TNF-α secretion induced by endogenous SAA-high HDL (THP-1 monocytes; [1]): inhibited

Cc1ccc(S(=O)(=O)/C=C/C#N)cc1 [BAY 11-7082]
HDL+SAA1-mediated increases in PTGS2 mRNA (PTGS2 mRNA; BAY-11-7082 10 μM): prevented
ability of endogenous SAA-high HDL to induce cytokine secretion (THP-1 monocytes; BAY-11-7082 10 μM): abrogate

NC(=O)Nc1sc(-c2ccc(F)cc2)cc1C(N)=O [TPCA1]
HDL+SAA1-mediated increases in PTGS2 mRNA (PTGS2 mRNA; TPCA-1 1 μM): prevented
ability of endogenous SAA-high HDL to induce cytokine secretion (THP-1 monocytes; TPCA-1 1 μM): abrogate
